Results from US20060287251A1, “Combination therapy for glycaemic control” (priority 2003, published 2006).

How the values were obtained:
[1] = In vivo inactivation (degradation) after oral administration to Wistar rats, LC/MS; settings: LC/MS of plasma
Procedure: Glutaminyl thiazolidine was administered to Wistar rats orally. After application of placebo or glutaminyl thiazolidine, arterial blood samples were taken at 2.5, 5, 7.5, 10, 15, 20, 40, 60 and 120 min from the carotid catheter of the conscious unrestrained rats to determine the formation of degradation products of glutaminyl thiazolidine. For analysis, simple solid phase extraction procedure on C18 cartridges was used to isolate the compounds of interest from the plasma. The extracts were analysed using reversed-phase liquid chromatography on Lichrospher 60 RP Select B column hyphenated with tandem mass spectrometry operating in the APCI positive mode. An internal standard method was used for quantification.

[2] = molecular target: T1, recombinant human prolyl oligopeptidase (Homo sapiens, UniProt P48147); assay: Cross reacting enzymes: prolyl oligopeptidase; type: biochemical; settings: concentration range 1*10^−4 M-5*10^−8 M
T1 construct: made in house; host or cells: E. coli
T1 sequence (P48147 1-710): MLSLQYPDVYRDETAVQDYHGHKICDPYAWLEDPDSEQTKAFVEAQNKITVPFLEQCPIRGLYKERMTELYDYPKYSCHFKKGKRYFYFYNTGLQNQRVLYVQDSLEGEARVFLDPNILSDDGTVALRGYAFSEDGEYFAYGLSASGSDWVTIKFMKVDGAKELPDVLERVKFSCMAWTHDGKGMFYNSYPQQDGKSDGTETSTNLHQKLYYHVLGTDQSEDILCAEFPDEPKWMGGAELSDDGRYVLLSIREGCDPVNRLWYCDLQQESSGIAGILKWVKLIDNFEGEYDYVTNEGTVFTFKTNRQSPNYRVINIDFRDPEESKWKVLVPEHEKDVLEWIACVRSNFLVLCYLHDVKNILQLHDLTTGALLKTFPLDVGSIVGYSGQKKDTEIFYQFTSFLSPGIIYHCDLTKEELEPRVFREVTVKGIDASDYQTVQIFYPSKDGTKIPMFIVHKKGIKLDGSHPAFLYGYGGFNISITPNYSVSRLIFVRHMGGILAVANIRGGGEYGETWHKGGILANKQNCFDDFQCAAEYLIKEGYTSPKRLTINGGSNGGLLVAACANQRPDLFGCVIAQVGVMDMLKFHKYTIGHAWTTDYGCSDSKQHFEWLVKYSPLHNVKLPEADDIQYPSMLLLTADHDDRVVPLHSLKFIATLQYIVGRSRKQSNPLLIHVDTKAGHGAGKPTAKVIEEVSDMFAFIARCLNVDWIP
Procedure: Glutaminyl pyrrolidine or glutaminyl thiazolidine were tested for their cross reacting potency against dipeptidyl peptidase I, prolyl oligopeptidase and prolidase.
Prolyl oligopeptidase (EC 3.4.21.26) is a serine type endoprotease which cleaves off peptides at the N-terminal part of the Xaa-Pro bond (Walter, R., Shlank, H., Glass, J. D., Schwartz, I. L. & Kerenyi, T. D., 1971, Science, 173, 827-829). Substrates are peptides with a molecular weight up to 3000 Da. The enzyme used was a recombinant human prolyl oligopeptidase. Recombinant expression was performed in E. coli under standard conditions as described elsewhere in the state of the art. 100 μL glutaminyl pyrrolidine or glutaminyl thiazolidine in an concentration range of 1*10^−4 M-5*10^−8 M were admixed with 100 μL buffer solution (40 mM HEPES, pH 7.6, 0.015% Brij, 1 mM DTT) and 20 μL POP solution. The assay mixture was pre-incubated at 30° C. for 15 min After pre-incubation, 50 μL glycylprolylprolyl-4-nitroaniline solution (0.29 mM) were added and measurement of yellow color development due to 4-nitroaniline release was performed at 30° C. and λ=405 nm for 10 min using a plate reader (sunrise, Tecan, Crailsheim, Germany). The IC 50-values were calculated using Graphit 4.0.15 (Erithacus Software, Ltd., UK). No inhibition of POP activity by glutaminyl pyrrolidine or glutaminyl thiazolidine was found.

Row | SMILES | degradation product in vivo [1] | inhibition of POP activity [2]
1 | NC(=O)CC[C@H](N)C(=O)N1CCSC1 [glutaminyl thiazolidine] | pyroglutaminyl thiazolidine | No inhibition
2 | NC(=O)CC[C@H](N)C(=O)N1CCCC1 [glutaminyl pyrrolidine] | pyroglutaminyl pyrrolidine | No inhibition
